Laboratory results from US20250154546A1, “USE OF 3'-OXYMETHYLENE ALKYL DISULFIDE PROTECTED NUCLEOTIDES FOR ENZYMATIC DNA AND RNA SYNTHESIS” (Miltenyi Biotec B.V. & Co. KG, priority 2022, published 2025).

Experiment: Cleave kinetics of 3′-O-capped nucleotide in cleave mix, monitored by UPLC
Format: physicochemical
Conditions: 10 mM Mg2+ in the cleave mix versus none; 20 mM DMPS, pH 9.5
Protocol: A 3′-O-capped nucleotide was treated with a cleave mix DMPS/THPP and the concentration of the 3′-capped nucleotide was monitored by UPLC with a UV detector at a fixed time interval.
In [A]=−kt+In[A]0 and t1/2=In2/k with [A]: reactant concentration; k: reaction rate coefficient
Nucleotide: MeSSdATP, 4.7 mM in 1× TE buffer;
12.8 μL of nucleotide was added to 287 μL of cleave mix in a 1.5 mL of UPLC sample vial. The resulting mixture was analyzed by UPLC right away and every 10 min afterwards automatically for up to 120 min. The area of the starting nucleotide peak was measured at each time point and the value was used directly for the calculation. From the rate of peak area reduction or disappearance of the intermediate the rate constant and the half-life of the intermediate calculated as discussed earlier.

Structure (SMILES): CSSCO[C@H]1C[C@H](n2cnc3c(N)ncnc32)O[C@@H]1COP(=O)(O)OP(=O)(O)OP(=O)(O)O [MeSSdATP, 3′-O—(MeSSCH2)-dATP]
- reduction of half-life: ≤ 30%
